Laboratory results as given in ChEMBL document CHEMBL3507680, “University of Dundee, Gates Library screen for HepG2 cell viability”.

Experiment: Human HepG2 cell viability assay in 384 well format
Assay type: toxicity, cell-based
Parameters: dose 125 nL, time 70.5 hour; concentration not given beside the values
Conditions: HepG2 cells, read-out: Inhibition

SMILES	cytotoxicity at 70.5 h [%]
CC(C)n1cc(CN2CCCN(C(=O)C(C)n3cncn3)CC2)cn1 (configuration not stated)	3.68
CCn1cnnc1CN(C)Cc1nc(-c2cc(OC)ccc2F)oc1C	-6.85
Cc1nc(CN2CCN(Cc3nccn3C)CC2)no1	3.86
Cc1ccc(C(=O)N(C)CCCc2cnn(C)c2)cc1N1CCNC1=O	46.5
COCC(=O)N1CCN(CCn2cccn2)c2nc(C)ccc2C1	0.00132
CN(C)C(=O)N1CCC2(CC(=O)N(c3cccc(C#N)c3)C2)C1 (configuration not stated)	-5.09
Cc1cccc(C)c1OC1CN(Cc2cnc(N3CCOCC3)nc2)C1	-7
CCn1cnnc1CNC(=O)N1CCCCCC1	-2.16
CCn1c(CC2CCN(C(=O)C3CCOC3)CC2)nn(C)c1=O (configuration not stated)	32.2
Cc1ccsc1C(=O)N1CCN(Cc2cscn2)CC1	-3.03
CCN1CCN(C(=O)c2scnc2C)CC1	18.9
Cc1nc(C)n(CC2CCCCN2CC(=O)NCc2ccccn2)n1 (configuration not stated)	2.56
CC(C)c1noc(C(C)N2CCN(c3ccc(C#N)cn3)CC2)n1 (configuration not stated)	-15.5
CCOc1c(F)cccc1C(=O)N(c1cccnc1)C(C)C	-3.95
Cc1nnc2n1CCN(C(=O)c1cn(-c3ccc(F)cc3)nn1)C2	-0.105
O=C(O)c1cc(-c2cccnc2)cc(S(=O)(=O)N2CCCCCC2)c1	-11.7
COCCN1CCN(Cc2ccc(F)c(C)c2)[C@H]2CS(=O)(=O)C[C@H]21	17.8
OCCNc1nccc(-c2c[nH]nc2-c2cccnc2)n1	-3.73
COc1ncccc1CN1CCc2[nH]nc(C(=O)N3CCCC3C)c2C1 (configuration not stated)	-3.57
COCCN1C(=O)[C@]2(CC[C@@H]3CN(C(=O)NC(C)C)C[C@@H]32)N=C1C	25.4
O=C1NCCCCC1NC(=O)C1(c2ccccc2)CCOCC1 (configuration not stated)	-1.6
Cc1cccc(-c2noc(C)c2C(=O)NC2CCCOC2)c1 (configuration not stated)	-10.9
CN(C)CCN1CCO[C@H]2CN(Cc3ccccn3)C[C@H]21	-6

SMILES	cytotoxicity at 70.5 h [%]
O=C(c1cnc2n1CCN(Cc1ccccc1)C2)N1CCCC1	-9.37
Cc1cccc(CN2CCC3(CCCN(C(=O)N4CCCC4)C3)C2=O)n1 (configuration not stated)	40
CC(c1nc(C2CC2)no1)N1CCc2c(ncn2C2CC2)C1 (configuration not stated)	-7.1
CC(C)c1ccc(-c2nnn(CCNS(C)(=O)=O)n2)cc1	3.94
Cc1nc(CNC(=O)NCC(O)c2ccc(F)cc2F)cs1 (configuration not stated)	-12
Oc1ccccc1CN1C[C@H](O)C[C@H]1c1nc(Cc2ccccc2)no1	-6.19
Cc1occc1C(=O)N1C[C@@H]2OCCN(c3ncccn3)[C@@H]2C1	-11.6
CN(C)CCN(C)S(=O)(=O)Cc1ccc(Br)cc1	11.7
Cc1nn(CCC(=O)N2CCN(Cc3cnn(C)c3C)CC2)c(C)c1Br	1.42
Cc1c[nH]c(C2CCCN2C(=O)CCc2c(C)n[nH]c2C)n1 (configuration not stated)	-11.3
CCNC(=O)N(C)C(c1cccnc1)C(C)C (configuration not stated)	-9.88
Cn1ccnc1CN1CCC2(CC1)CCN(c1ccccc1)C2=O	27.2
CCCn1cnnc1CN(C)C(=O)C1CCCN(C2CCN(C)CC2)C1 (configuration not stated)	-9.33
CC(C)c1cc(NCC2(Cn3cccn3)CC2)nc(N)n1	-0.462
O=C(NC1CCC1)[C@@H]1CCO[C@@H]2CCN(C3CCCC3)C[C@H]21	-3.8
Cc1ncncc1C(=O)NCCn1nc2ccccn2c1=O	-3.41
COc1ncccc1CNC1CCc2c(ccc(=O)n2CC2CC2)C1 (configuration not stated)	-8.76
O=C(NCc1ccc(F)cc1)NCC1(N2CCOCC2)CCSC1 (configuration not stated)	7.3
Cc1nccn1CCC1CCCCN1C(=O)c1ccc2[nH]nnc2c1 (configuration not stated)	-1.82
CC(CN1CCCC1=O)NC(=O)c1cc(Cl)c2c(c1)OCO2 (configuration not stated)	7.24
Cn1c(-c2ccccc2)nn(CCNS(=O)(=O)c2ccccc2Cl)c1=O	0.396
COc1ccc(-n2ccc(C(=O)NCCN3CCC(C)CC3)n2)cc1	-5.24
O=C(c1c[nH]c(=O)c(Cl)c1)N1C[C@@H]2CC[C@H](C1)N(CC1CCC1)C2	19.9

SMILES	cytotoxicity at 70.5 h [%]
CCc1nc(CNC(=O)Nc2ccc(C(=O)NC)cc2C)cs1	-22.3
CC(C(=O)Nc1cccc(Cl)c1)N1CCN(Cc2ncc[nH]2)CC1 (configuration not stated)	-10.6
CSc1ccccc1CC1CCCS(=O)(=O)C1 (configuration not stated)	3.79
CC(C)(C)OC(=O)N1CCN(S(C)(=O)=O)C2(CCCCC2)C1	-1.8
O=S(=O)(Cc1ccc(F)c(Cl)c1)NCCOc1cccnc1	3.53
CO[C@H]1CN(C(=O)c2ccccn2)[C@@H]2CCCO[C@H]12	-14.9
COCc1ccccc1C(=O)NCCCN1CCCC1C(=O)N(C)C (configuration not stated)	7.28
CC(=O)N1CCCC(c2nccnc2-c2ccc(CO)cc2)C1 (configuration not stated)	-5.35
CC(C)N1C[C@@H]2OCC(=O)N(Cc3ccccc3)[C@@H]2C1	-10.2
Cc1ccc(-c2ccc(Cl)nn2)cc1S(=O)(=O)N1CCOCC1	-5.38
N#CCCNC(=O)CN1CC(n2cccn2)C1	-1.56
CC(C)CCc1noc(C[S+]([O-])CC(=O)NCc2ccccc2)n1 (configuration not stated)	-1.48
Clc1ccc(CN2CCC(C3CCN(Cc4cccnc4)CC3)C2)cc1 (configuration not stated)	-2.87
O=C(NCC(O)c1ccc(F)cc1F)c1ccccc1F (configuration not stated)	-12.6
O=C(Cc1ccc2c(c1)CCO2)N1CCN(c2cnccn2)CC1	23.2
CC(c1ccc(Cl)cc1)N1CCN(CCCS(C)(=O)=O)CC1 (configuration not stated)	1.48
CCOc1ncccc1CNS(=O)(=O)N1CCOCC1	15.2
Cn1cc(CN2CC[C@@H]3[C@@H](CO[C@H]3CNC(=O)c3ccco3)C2)cn1	-3.28
CC1CCN(C)c2ccccc2N1C(=O)c1ccc(=O)n(C)c1 (configuration not stated)	-6.14
COc1ccc(NC(=O)c2nc(C)sc2C(C)C)cn1	-9.52
O=C(O)CSc1nnc(-c2ccco2)n1-c1ccccc1C(F)(F)F	-4.07
COc1ccc2c(c1)CC(NCc1cccc(OCC(N)=O)c1)CC2 (configuration not stated)	-10.5
CC(C)(C)c1oc(C(N)=O)cc1CN1CCCCC1CN1CCOCC1 (configuration not stated)	39.9

SMILES	cytotoxicity at 70.5 h [%]
Cn1c(CN2CCCC(c3noc(C4CC4)n3)C2)cc(=O)n(C)c1=O (configuration not stated)	-11.3
Cn1cc(CN2CCC(CCC(=O)Nc3ccccc3Cl)CC2)cn1	4.76
Cc1nn(C)c(C)c1-c1cnc(CC2CCNC2)cn1 (configuration not stated)	-4.3
CCOC(=O)c1nc(CN2CCC(NC(=O)C(C)C)CC2)cs1	-3.69
CO[C@H]1CN(C(C)C)C[C@@H]1NC(=O)c1cc(-c2ccccc2F)n[nH]1	-6.15
CCc1cc(=O)n(CC(=O)N2CCC(C)CC2)c(-c2ccccc2)n1	-10.3
CC(C)C(O)CNC(=O)Nc1cccc(-c2nccs2)c1 (configuration not stated)	-3.11
CSC(C)CCN1CCCn2nc(CNC(=O)C3CCC3)cc2C1 (configuration not stated)	0.861
CNC(=O)c1nc(CN2CCOC(CCCC(C)C)C2)no1 (configuration not stated)	-16.2
CN(c1ccc(OCc2cnc(Cl)s2)cc1)S(C)(=O)=O	5.74
CCCn1cc(S(=O)(=O)N[C@H]2CN(CCO)C[C@@H]2C2CC2)cn1	-7.84
CS(=O)(=O)CCCSc1cccc(C#N)c1	-13
CCOCC(O)CN1CCN(C(=O)c2ccncc2)CC1 (configuration not stated)	-3.55
Cc1ccc(S(=O)(=O)N2CCOCC2C#N)cc1Br (configuration not stated)	-6.92
Cc1nnc(C(NS(=O)(=O)c2cc(C#N)ccc2C)C(C)C)[nH]1 (configuration not stated)	-5.93
Cc1nc(N(C)C2CCCCC2)ncc1C(C)NC(=O)c1cccnc1 (configuration not stated)	-5.07
CCC(C)(C)NC(=O)Cn1nnc(CN(C)C(=O)c2ccccc2)n1	-3.46
CN(Cc1ccco1)C(=O)NC1CCCN(c2ncccn2)C1 (configuration not stated)	8.71
COC(=O)c1cccc(C(=O)N(C)Cc2cccc(O)c2)c1	15.5
CC1CCN(C(=O)[C@H]2CC[C@@H]3[C@@H](CCN3Cc3nccs3)O2)CC1	25.3
O=S1(=O)C[C@@H]2[C@H](C1)N(Cc1cc(F)cc(Cl)c1)CCN2CCO	-0.108
Cc1nn(C)c(C)c1C1CCCN1Cc1ccc(C(N)=O)cc1 (configuration not stated)	-10.3
COC(=O)CNC(=O)CCc1cc(Br)cs1	-3.56

SMILES	cytotoxicity at 70.5 h [%]
CCNC(=O)NC(=O)CN1CCCC1c1nc(C2CCCCC2)co1 (configuration not stated)	-7.64
CC(C)(C)CCN1CCN(c2snc(Cl)c2C#N)CC1	4.63
c1cc(C2CN(C3CCCC3)C2)n[nH]1	-1.02
CO[C@H]1COCCN(C(=O)c2ccc(C(F)(F)F)cc2)C1	-4.56
Cc1nc(N2CCOc3ccc(CO)cc3C2)c2c(C)noc2n1	-2.39
Cc1cc2[nH]c(=O)oc2cc1S(=O)(=O)N1CCCC(N(C)C)CC1 (configuration not stated)	-2.95
C=C(C)CN1CCC(NC(=O)NCCc2cccc(C(N)=O)c2)CC1	-3.95
CC(=O)N1CC(=O)N(c2cnn(C)c2)CC12CCN(Cc1cccs1)C2 (configuration not stated)	-9.86
Cc1ccc(-c2cn3c(n2)CO[C@@H](CNCc2cnn(C)c2)C3)cc1	6.98
O=C1CCC2(CCNCC2)CN1Cc1nnc2ccccn12	-5.01
CCOc1ccccc1-c1cc2c(cc1C(N)=O)OCO2	9.52
c1cc(-c2cnc(NC3CC3)nc2[C@H]2CCCO2)ccn1	-7.2
COc1cnc(N2CC(N3CCOCC3)C2)nc1-c1ccnn1C	6.03
CCOc1ccc2nc(NC(=O)c3c(C(=O)O)cnn3C)sc2c1	-14.2
Cc1c(C(C)NC(=O)N2CCN(C3CCCC3)CC2)cnn1C (configuration not stated)	54.3
CCC(CC)C(=O)N1CCC(c2nn(CCN)c3nccnc23)C1 (configuration not stated)	-4.84
COc1ccccc1C(N)CC(C)C (configuration not stated)	-8.84
O=C1[C@H]2CN(Cc3ccncc3)C[C@H]2CN1c1cncnc1	-0.121
COC(=O)C(NC(=O)Nc1ccc(C(C)=O)cc1)C(C)C (configuration not stated)	-5.76
O=C(Cc1cccc(Cl)c1)N[C@@H]1CCNC[C@H]1O	-3.16
